# From patent EP0319316A2, “Griseolic acid monoesters, their preparation and use” (SANKYO COMPANY LIMITED, priority 1987, dated 1989)
# Structures can show the parent of a compound that is named as a salt. Where two headings read alike, the source gives them in different places.
# What was measured:
# normal rabbits = test: Intraocular pressure reduction in normal rabbits (Experiment 1); format: in vivo, male New Zealand white rabbits
# Procedure: In the following Experiments 1 to 6, the test animals used were male New Zealand white rabbits, each weighing about 2.5 kg, raised in a room where the room temperature, relative humidity and lighting time were controlled to be 23° C, 60% and from 07:00 to 19:00, respectively. The animals were chosen from those where no abnormalities could be detected in their eyes by observation with the naked eye. They were given water freely but feed was restricted. The reduction in intraocular pressure (IOP) caused by the compounds of the present invention was investigated using groups of three male New Zealand white rabbits for each test. The compounds of the present invention were employed as solutions dissolved in a 50 mM phosphate buffer (pH 7.0) containing 0.4% w/v of sodium chloride which were adjusted to concentrations of about 1% w/v of the compound under test. Both eyes of each rabbit were anesthetized with eye drops containing an ophthalmic anesthetic (0.4% Benoxil, available from Santen Pharmaceutical Co., Ltd.), and then the IOP in each eye was measured by means of a PTG (Pneumatonograph: Alcon). The test substance was then instilled into either the left eye or the right eye (the eye to be tested) in an amount of 50 µℓ (in the case of 0.5% timolol, a known compound used for comparison, the amount was 30 µℓ). Sixty minutes after this instillation, the same amount of the same test compound was instilled into the same eye of each test animal. On the other hand, no instillation was effected into the other eye of each animal, which was used as a control eye. The IOP values of both eyes were measured 30,60,90,120,150 and 180 minutes, after the initial instillation of the test substance. The IOP reduction at each time of measurement caused by each test substance was calculated from the following equation: Intraocular pressure reduction (Ap, mmHg) = (Ic - It) - (Ic° - It°), • in which: • Ic the IOP of the control eye; • It is the IOP of the test eye; • Ic° the IOP of the control eye immediately before the initial instillation; and • It° is the IOP of the test eye immediately before the initial instillation. The average value of the IOP reduction at each time of measurement was calculated to obtain the intraocular reduction (Ap, mmHg) of the test substance. The results are reported as a ratio of the Δp of the test substance to that of the known substance, 0.5% timolol, which is, therefore, taken as 1.
# Balb/3T3 cells [1] = conditions: 10 min, 500 µM
# Procedure: (§1) Balb/3T3 cells were incubated in Dulbecco's modified Eagle medium (glucose-rich) containing 100/o v/v bovine fetal serum. […] The sample was then dissolved in a buffer solution prepared by the further addition of 4 mM of calcium chloride to the buffer solution mentioned above. If the sample was difficult to dissolve in water, it was dissolved first in dimethyl sulphoxide (DMSO) and then the resulting solution was diluted with the buffer (the final concentration of DMSO was determined to be 0.1%). The cell suspension was preincubated at 30° C for 5 minutes, and 100 µℓ of this suspension were added to 100 µℓ of the sample solution to initiate enzymatic reaction. After incubation at 30° C for 10 minutes, 20 µℓ of 1 N aqueous hydrochloric acid was added to stop the reaction. The reaction mixture was then centrifuged at 3000 rpm for 3 minutes to obtain 100 µℓ of the supernatant. Cyclic 3',5'-adenosine monophosphate (cAMP) contained in the supernatant was quantitatively analyzed by radioimmunoassay using a Yamasa cAMP radioimmunoassay kit YSI-7701. The CAMP accumulating effect is reported as the ratio between the value measured using a test compound and that measured in the control.
# Balb/3T3 cells [2] = test: cAMP accumulation in Balb/3T3 cells, radioimmunoassay (Experiment 5)
# Procedure: as §1
# IOP = IOP lowering effect, area between IOP-time curves (Experiment 6); format: in vivo, male New Zealand white rabbits; conditions: 25 µℓ three times every 2 minutes, ratio of areas between IOP lines
# Procedure: In the following Experiments 1 to 6, the test animals used were male New Zealand white rabbits, each weighing about 2.5 kg, raised in a room where the room temperature, relative humidity and lighting time were controlled to be 23° C, 60% and from 07:00 to 19:00, respectively. The animals were chosen from those where no abnormalities could be detected in their eyes by observation with the naked eye. They were given water freely but feed was restricted.
# The compound under test was dissolved in 100 mM of a sodium phosphate buffer solution (pH 7.2) containing a small amount of a 0.1 N aqueous solution of sodium hydroxide. In the case of timolol maleate, a 0.5% w/v eye lotion (Timoptol 0.5%, Santen Pharm. Co.) was used as such.
# The cornea of the rabbit was anesthetized by the topical application of one or two drops of 0.4% oxybuprocaine hydrochloride. The IOP was measured two or three times for each eye and the mean value was calculated and is reported as the IOP value. After the IOP of the rabbit eye had been measured, 25 µℓ of the sample solution was applied to center of the cornea of one eye three times every 2 minutes. The other eye was treated with the vehicle alone in a similar way. The IOP of both eyes was then measured.
# IOP values obtained from both eyes were plotted against times after application and the area enclosed by the two IOP lines (with and without the active compound) was calculated. The IOP lowering effect of each sample was expressed as a ratio of the area described above to that of 0.5^0/o timolol.
# [3] = test system: Normal intraocular pressure; test: Normal intraocular pressure lowering effect (Experiment 3); format: in vivo, male New Zealand white rabbits; conditions: 0.5% timolol maleate applied to the eye
# Procedure: In the following Experiments 1 to 6, the test animals used were male New Zealand white rabbits, each weighing about 2.5 kg, raised in a room where the room temperature, relative humidity and lighting time were controlled to be 23° C, 60% and from 07:00 to 19:00, respectively. The animals were chosen from those where no abnormalities could be detected in their eyes by observation with the naked eye. They were given water freely but feed was restricted. The compound under test was dissolved in 100 mM of a sodium phosphate buffer solution (pH 7.2) containing a small amount of a 0.1 N aqueous solution of sodium hydroxide. In the case of timolol maleate, a 0.5% w/v eye lotion (Timoptol 0.5%, Santen Pharm. Co.) was used as such. The corneal surface was anesthetized by the application of oxybuprocain hydrochloride (Benoxil 0.4% solution, Santen Pharm. Co.), and the IOP was measured by means of an Alcon Applanation Pneumatograph (Japan Alcon) in rabbits. The measurements were carried out 2 or 3 times for each eye, and the mean value was calculated and is regarded as the value of IOP. After determination of the IOP, 25 µℓ of a sample solution was applied to one eye (test eye) three times every two minutes, and the same volume of the vehicle alone was applied to the other eye (control eye). The values of IOP of both eyes were measured with the passage of time. In this Experiment, the test compound was the compound of Example 19(b).
# [4] = test system: water load-induced elevation of intraocular pressure; test: Effect on water load-induced elevation of intraocular pressure, water load test (Experiment 2); format: in vivo, male New Zealand white rabbits; conditions: 0.5% timolol maleate; water load test
# Procedure: In the following Experiments 1 to 6, the test animals used were male New Zealand white rabbits, each weighing about 2.5 kg, raised in a room where the room temperature, relative humidity and lighting time were controlled to be 23° C, 60% and from 07:00 to 19:00, respectively. The animals were chosen from those where no abnormalities could be detected in their eyes by observation with the naked eye. They were given water freely but feed was restricted. The compound under test was dissolved in 100 mM of a sodium phosphate buffer solution (pH 7.2) containing a small amount of a 0.1 N aqueous solution of sodium hydroxide. In the case of timolol maleate, a 0.5% w/v eye lotion (Timoptol 0.5%, Santen Pharm. Co.) was used as such. Each rabbit was anesthetized with urethane (1.0 g/kg, i.v.), and the IOP values of both eyes were measured. Immediately thereafter, 50 µℓ of the sample solution was applied to one eye (test eye). To the other eye (control eye), 50 µℓ of the vehicle alone was applied. Ninety minutes after this application, the values of IOP were measured and then the water load test was performed as follows. Sixty ml/kg of tap water was given compulsorily per os to the anesthetized rabbit, and then the values of IOP for both eyes were measured with the passage of time. In this Experiment, the test compound was the compound of Example 19(b), i.e. 9'-(4-acetoxybenzyl) griseolate.
# [5] = drug concentration 1.0 %, 50 µℓ instilled at 0 and 60 min, average over 30-180 min, ratio to 0.5% timolol taken as 1
compound,measurement,setting,value
8'-Pivaloyloxyrnethyl griseolate [Example 10],Intraocular pressure reduction relative to 0.5% timolol,normal rabbits; [5],1.08
9'-(1-Pivaloyloxyethyl) griseolate [Example 5],Intraocular pressure reduction relative to 0.5% timolol,normal rabbits; [5],0.92
"9'-(3,4-Diacetoxybenzyl) griseolate [Example 22(b)]",cAMP accumulating effect,Balb/3T3 cells [1],8.3
9'-(4-Acetoxy-3-methoxybenzyl) 7'-deoxygriseolate [Example 37],cAMP accumulating effect,"Balb/3T3 cells [2]; Concentration 500 µM, ratio of value with test compound to control, 30° C, 10 minutes",16
9'-(4-Acetoxy-3-methoxybenzyl) griseolate [Example 26(b)],IOP Lowering Effect (Ratio to 0.5% timolol),IOP; Concentration 0.5 %,3.29
9'-Pivaloyloxymethyl griseolate [Example 1],Intraocular pressure reduction relative to 0.5% timolol,normal rabbits; [5],2.38
9'-[1-(Isopropoxycarbonyloxy)ethyl] griseolate [Example 2],Intraocular pressure reduction relative to 0.5% timolol,normal rabbits; [5],1.24
"Cc1oc(=O)oc1COC(=O)C12C=C(C(O)C(=O)O)OC1C(O)C(n1cnc3c(N)ncnc31)O2 (centres unmarked) [Example 3, 9'-(5-Methyl-2-oxo-1,3-dioxolen-4-yl)methyl griseolate]",Intraocular pressure reduction relative to 0.5% timolol,normal rabbits; [5],0.90
"CCCC(=O)OC(C)OC(=O)C12C=C(C(O)C(=O)O)OC1C(O)C(n1cnc3c(N)ncnc31)O2 (centres unmarked) [Example 7, 9'-(1-Butyryloxyethyl) griseolate]",Intraocular pressure reduction relative to 0.5% timolol,normal rabbits; [5],0.79
"CC(C)(C)C(=O)Oc1ccc(COC(=O)C23C=C(C(O)C(=O)O)OC2C(O)C(n2cnc4c(N)ncnc42)O3)cc1 (centres unmarked) [Example 21(b), 9'-(4-Pivaloyloxybenzyl) griseolate]",cAMP accumulating effect,Balb/3T3 cells [1],8.5
"CC(C)C(=O)Oc1ccc(COC(=O)C2=CC3(C(O)C(=O)O)OC(n4cnc5c(N)ncnc54)C(O)C3O2)cc1 (centres unmarked) [Example 23(b), 9'-(4-lsobutyryloxybenzyl) griseolate]",IOP Lowering Effect (Ratio to 0.5% timolol),IOP; Concentration 0.03 %,1.62
"CC(=O)Oc1ccccc1C=CCOC(=O)C12C=C(C(O)C(=O)O)OC1C(O)C(n1cnc3c(N)ncnc31)O2 (centres unmarked) [Example 31(b), 9'-(2-Acetoxycinnamyl) griseolate]",IOP Lowering Effect (Ratio to 0.5% timolol),IOP; Concentration 0.5 %,1.88
"CC(=O)Oc1ccc(COC(=O)C(O)C2=CC3(C(=O)O)OC(n4cnc5c(N)ncnc54)C(O)C3O2)cc1 (centres unmarked) [Example 34, 8'-(4-Acetoxybenzyl) griseolate]",cAMP accumulating effect,Balb/3T3 cells [1],16
"COc1cc(COC(=O)C(O)C2=CC3(C(=O)O)OC(n4cnc5c(N)ncnc54)C(O)C3O2)ccc1OC(C)=O (centres unmarked) [Example 35, 8'-(4-Acetoxy-3-methoxybenzyl) griseolate]",cAMP accumulating effect,Balb/3T3 cells [1],18
"CC(=O)Oc1ccc(COC(=O)C23C=C(CC(=O)O)OC2C(O)C(n2cnc4c(N)ncnc42)O3)cc1 (centres unmarked) [Example 36, 9'-(4-Acetoxybenzyl) 7'-deoxygriseolate]",cAMP accumulating effect,Balb/3T3 cells [1],16
Nc1ncnc2c1ncn2[C@@H]1OC2=C[C@@](C(=O)O)(C(O)C(=O)O)O[C@H]2[C@H]1O (some centres unmarked) [Griseolic acid],fold induction at 500 µM,"Balb/3T3 cells [2]; Mus musculus, BALB/3T3, 10 min, read-out: cAMP accumulating effect",3.5
same,Intraocular pressure reduction relative to 0.5% timolol,normal rabbits; [5],-0.12
"CC(C)(C)NC[C@H](O)COc1nsnc1N1CCOCC1 [timolol maleate, reference compound]",significant lowering of IOP,[3],only observed 2 hours after application
same,difference of IOP between the control eye and the test eye,[4],no significant difference
"CC(C)(C)NC[C@H](O)COc1nsnc1N1CCOCC1 [timolol, reference compound]",Intraocular pressure reduction relative to 0.5% timolol,"normal rabbits; drug concentration 0.5 %, 30 µℓ instilled at 0 and 60 min, reference, taken as 1",1.0
